Measured values reported in patent US6602664B2 (priority 1998, dated 2003).
Values joined by “and” are separate entries in the source; they are usually repeats but may differ in a detail not shown here. Equal entries are not always repeated. Where two headings read alike, the source gives them in different places.

Assays:
Format in all cases: cell-based
[1] = test system: HIV-1 replication in human PBM cells; test: microbe, parasite or virus in culture
Protocol: Cells and viruses. […] Antimicrobial Agents Chemother 1992;36(11): 2423-2431.
Cell pellets were washed, centrifuged, lysed and the proviral DNA extracted as previously described. Cytotoxicity of the compounds was determined using the Promega Cell Titer 96 dye uptake assay (Madison, Wis.) in 1-2 day PHA-stimulated PBM cells after 5 days in culture. The median effective concentration (EC50) and inhibitory concentration (IC50) were derived from the computer-generated median effect plot of the dose-effect data, as described previously.

[2] = test system: drug-resistant HIV-1 in PBMC; test: microbe, parasite or virus in culture; settings: PBMC; for EC50: Human immunodeficiency virus 1, PBMC
[3] = test system: drug-resistant HIV-1 in MT-2; test: microbe, parasite or virus in culture; settings: for Fold-resistance: MT-2
[4] = test system: drug-resistant HIV-1 in MT-4; test: microbe, parasite or virus in culture
[5] = test system: drug-resistant HIV-1 in HeLa HT4-6C; test: microbe, parasite or virus in culture; settings: for EC50: Human immunodeficiency virus 1, HeLa
[6] = test system: recombinant HIV-1 virus isolates
Source text: The aim of the study was to determine the potency of the inhibitory effect of a new generation of NRTIs on Multi Drug Resistant isolates and to compare it with their effect on wild-type HIV-1 isolates. All recombinant viruses were taken from the VIRCO repository of phenotypically and genotypically characterized virus isolates. Hirsch et al. Antiretroviral Drug Resistance Testing in Adults with HIV Infection. JAMA; 1998: 79(24) 1984-1991. See also Pauwels et al. Comprehensive HIV drug Resistance monitoring using rapid, high-throughput phenotypic and genotypic assays with correlative data analysis. Antiviral Therapy, 1998: 3: 35 Abstract 51.
Phenotypic drug susceptibility determination of recombinant virus isolates is described in Hertogs et al. A Rapid Method for Simultaneous Detection of Phentypic Resistance to Inhibitors of Protease and Reverse Transcriptase in Recombinant HIV-1 Isolates from Patients Treated with Antiretroviral Drugs. Antimicrob. Agents Chemother. 1998; 42(2): 269-276. The basic principle of the Antivirogram® technology is the construction of chimeric HIV-1 strains composed of the protease (PR) and reverse transcriptase (RT) gene sequences which are isolated and amplified from patient viral RNA. Amplicons are subsequently transfected into CD4+T cells together with a standard laboratory isogenic (HXB2) HIV-1 DNA construct from which the PR/RT gene sequences were deleted. After homologous recombination, new viruses whose diversity reflects the original population amplified from the plasma are produced at high level from these cells.
The virus infectivity (CCID50) is determined by an end-point dilution method. The titer is calculated from the degree of infection, measured by the intensity of reporter-gene signal as generated by serial dilutions of the virus shock. The chimeric (clinical isolates and wild-type reference) viruses are then analyzed for their phenotypic sensitivity (i.e. susceptibility) to the different PR and RT-inhibitors in an automated reporter gene-based assay using serial dilutions of the compound. The standardisation of the Antivirogram®n assay allows for simultaneous testing of all clinically approved drugs in one 384-well microtiter plate. The experimental drugs are included in separate plates. Each plate contains multiple replicates of mock-infected wells, virus-infection control wells and blank (medium-only) well. All plates are tested in duplicate. 50% Inhibitory concentrations are calculated based on reporter signals obtained through optical reading of 384-well plates containing serial dilutions of compounds, a normalised quantity of virus and by taking into account all relevant control wells. Approval (or not) is done according to critical ranges and settings as described in the corresponding VIRCO Standard Operating Procedure.
A more detailed description of the protocol is as follows. Samples were stored frozen. […] To confirm the genotypic pattern, genotyping (ABI-sequencing) was performed after recombination and culture of the laboratory strains by analysis of cell viability, calculation of results (dose-response curves, IC50 values), and reporting of data.

[7] = Human immunodeficiency virus 1, PBMC, 144 h
[8] = HIV-1 (A012D:M41L?/D67N/K70R/T215F/K219Q)
[9] = clinical isolate (pre) prior to long-term ZDV monotherapy, row HIV-1 (A012D), read-out: Untreated EC50
[10] = clinical isolate HIV-1 (A012D:M41L?/D67N/K70R/T215F/K219Q), read-out: Selected Varient EC50

SMILES: Cc1cn([C@H]2C[C@H](N=[N+]=[N-])[C@@H](CO)O2)c(=O)[nH]c1=O [AZT, 3′-azido-3′-deoxythymidine]
- EC90 [1]: 21 nM and 14 nM
- EC90 ([1]; Human immunodeficiency virus 1, PBMC): 13 nM
- inhibition at 0.1 µM [1, 7]: -12.9%
- inhibition at 1 µM [1, 7]: 67.6%
- inhibition at 10 µM [1, 7]: 83.2%
- inhibition at 100 µM [1, 7]: 98.2%
- Fold-resistance ([2]; 1 (T215Y/M41L)): 11
- Fold-resistance ([2]; (M184V/T215Y)): 5.8
- Fold-resistance [2, 8]: 240
- Fold-resistance ([2]; HIV-1 (D67N/K70R/T215Y/K219Q)): 9
- Fold-resistance ([2]; HIV-1 (K65R)): 2
- Fold-resistance ([2]; HIV-1 (L74V)): 0.8
- Fold-resistance ([2]; HIV-1 (M184V)): 0.8
- Fold-resistance ([2]; HIV-1 (T215Y)): 2.5
- EC50 [2, 9]: 1 nM
- EC50 [2, 10]: 240 nM
- EC50 ([2]; molecular clone 1 (T215Y/M41L), read-out: Selected Varient EC50): 42 nM
- EC50 ([2]; molecular clone (M184V/T215Y), read-out: Selected Varient EC50): 23 nM
- EC50 ([2]; molecular clone HIV-1 (D67N/K70R/T215Y/K219Q), read-out: Selected Varient EC50): 36 nM
- EC50 ([2]; molecular clone HIV-1 (K65R), read-out: Selected Varient EC50): 8 nM
- EC50 ([2]; molecular clone HIV-1 (L74V), read-out: Selected Varient EC50): 3 nM
- EC50 ([2]; molecular clone HIV-1 (M184V), read-out: Selected Varient EC50): 3 nM
- EC50 ([2]; molecular clone HIV-1 (T215Y), read-out: Selected Varient EC50): 10 nM
- EC50 ([2]; parent strain HIV-1 (xxLAI), row 1 (T215Y/M41L), read-out: Untreated EC50): 4 nM
- EC50 ([2]; parent strain HIV-1 (xxLAI), row (M184V/T215Y), read-out: Untreated EC50): 4 nM
- EC50 ([2]; parent strain HIV-1 (xxLAI), row HIV-1 (D67N/K70R/T215Y/K219Q), read-out: Untreated EC50): 4 nM
- EC50 ([2]; parent strain HIV-1 (xxLAI), row HIV-1 (K65R), read-out: Untreated EC50): 4 nM
- EC50 ([2]; parent strain HIV-1 (xxLAI), row HIV-1 (L74V), read-out: Untreated EC50): 4 nM
- EC50 ([2]; parent strain HIV-1 (xxLAI), row HIV-1 (M184V), read-out: Untreated EC50): 4 nM
- EC50 ([2]; parent strain HIV-1 (xxLAI), row HIV-1 (T215Y), read-out: Untreated EC50): 4 nM
- Fold-resistance ([3]; HIV-1 (D67N/K70R/M184V/T215Y/K219Q)): 5
- Fold-resistance ([3]; HIV-1 (D67N/K70R/T215Y/K219Q)): 33
- Fold-resistance ([3]; HIV-1 (M41L/D67N/M184V/H208Y/L210W/R211K/L214F/T215Y)): >550
- Fold-resistance ([3]; HlV-1 (M184V)): 1.5
- EC50 ([3]; Human immunodeficiency virus 1, MT2, read-out: Untreated EC50): 6 nM
- Fold-resistance ([4]; HIV-1 (A-161)): 60
- Fold-resistance ([4]; HIV-1 (C-246)): 35
- Fold-resistance ([4]; HIV-1 (G-68)): 33
- Fold-resistance ([4]; HIV-1 (R-102)): 60
- Fold-resistance ([4]; HIV-1 (X-78)): 55
- EC50 ([4]; Human immunodeficiency virus 1, MT4, clinical isolate (pre) prior to long-term ZDV monotherapy, row HIV-1 (A-161), read-out: Untreated EC50): 20 nM
- EC50 ([4]; Human immunodeficiency virus 1, MT4, clinical isolate (pre) prior to long-term ZDV monotherapy, row HIV-1 (C-246), read-out: Untreated EC50): 20 nM
- EC50 ([4]; Human immunodeficiency virus 1, MT4, clinical isolate (pre) prior to long-term ZDV monotherapy, row HIV-1 (G-68), read-out: Untreated EC50): 20 nM
- EC50 ([4]; Human immunodeficiency virus 1, MT4, clinical isolate (pre) prior to long-term ZDV monotherapy, row HIV-1 (R-102), read-out: Untreated EC50): 20 nM
- EC50 ([4]; Human immunodeficiency virus 1, MT4, clinical isolate (pre) prior to long-term ZDV monotherapy, row HIV-1 (X-78), read-out: Untreated EC50): 20 nM
- EC50 ([4]; Human immunodeficiency virus 1, MT4, clinical isolate HIV-1 (A-161), long-term ZDV monotherapy, read-out: Selected Varient EC50): 1200 nM
- EC50 ([4]; Human immunodeficiency virus 1, MT4, clinical isolate HIV-1 (C-246), long-term ZDV monotherapy, read-out: Selected Varient EC50): 700 nM
- EC50 ([4]; Human immunodeficiency virus 1, MT4, clinical isolate HIV-1 (G-68), long-term ZDV monotherapy, read-out: Selected Varient EC50): 650 nM
- EC50 ([4]; Human immunodeficiency virus 1, MT4, clinical isolate HIV-1 (R-102), long-term ZDV monotherapy, read-out: Selected Varient EC50): 1200 nM
- EC50 ([4]; Human immunodeficiency virus 1, MT4, clinical isolate HIV-1 (X-78), long-term ZDV monotherapy, read-out: Selected Varient EC50): 1100 nM
- Fold-resistance [5, 8]: 200
- Fold-resistance ([5]; HIV-1 (A018C:D67N/K70R/T215Y/K219Q)): 400
- Fold-resistance ([5]; HIV-1 (A036DD:M41L/D67N/K70R/T215Y)): 800
- Fold-resistance ([5]; HIV-1 (P022C:M41L?/D67N/K70R/T215F/K219Q)): 187
- Fold-resistance ([5]; HIV-1 (P026B:M41L?/D67N/K70R/T215Y)): 280
- EC50 [5, 9]: 10 nM
- EC50 ([5]; clinical isolate (pre) prior to long-term ZDV monotherapy, row HIV-1 (A018C), read-out: Untreated EC50): 10 nM
- EC50 ([5]; clinical isolate (pre) prior to long-term ZDV monotherapy, row HIV-1 (A036DD), read-out: Untreated EC50): 7 nM
- EC50 ([5]; clinical isolate (pre) prior to long-term ZDV monotherapy, row HIV-1 (P022C), read-out: Untreated EC50): 30 nM
- EC50 ([5]; clinical isolate (pre) prior to long-term ZDV monotherapy, row HIV-1 (P026B), read-out: Untreated EC50): 10 nM
- EC50 [5, 10]: 2000 nM
- EC50 ([5]; clinical isolate HIV-1 (A018C:D67N/K70R/T215Y/K219Q), read-out: Selected Varient EC50): 4000 nM
- EC50 ([5]; clinical isolate HIV-1 (A036DD:M41L/D67N/K70R/T215Y), read-out: Selected Varient EC50): 5500 nM
- EC50 ([5]; clinical isolate HIV-1 (P022C:M41L?/D67N/K70R/T215F/K219Q), read-out: Selected Varient EC50): 5600 nM
- EC50 ([5]; clinical isolate HIV-1 (P026B:M41L?/D67N/K70R/T215Y), read-out: Selected Varient EC50): 2800 nM
- fold Resistance ([6]; RT genotype D67D/N, K70R, M184V, G333E): 0.9
- fold Resistance ([6]; RT genotype D67N, K70R, K219Q/K, 181C/Y): 12
- fold Resistance ([6]; RT genotype K70R, K219Q): 5
- fold Resistance ([6]; RT genotype M41L, D67N, K70R, K103N, L210W, T215Y, K219N/K): >36
- fold Resistance ([6]; RT genotype M41L, L210L, T215Y, Y181C/Y, M184M/V): >36
- fold Resistance ([6]; RT genotype M41L, L210W, T215Y): 24
- fold Resistance ([6]; RT genotype M41L, T69S-V-T, L210W, T215Y, G333E): >65
- fold Resistance ([6]; RT genotype M41L, T215Y, M184V): 5.5
- fold Resistance ([6]; RT genotype T69G, Q151M, M184V/M): >65
- fold Resistance ([6]; RT genotype T69I, K70R, Q151M, M184V): >65
- fold Resistance ([6]; RT genotype T69S-E, M184I, T215Y): >65
- fold Resistance ([6]; RT genotype T215Y): 13.5
- fold Resistance ([6]; recombinant isolate, RT genotype K70R): 0.7
